What was measured:
[1] = Rat PK study, IV and oral TID amifampridine phosphate (Example 4); assay type: in vivo; conditions: rat plasma
Protocol: The objective of this study was to determine the absolute bioavailability of amifampridine phosphate and the pharmacokinetics of amifampridine and its 3-N-acetyl metabolite upon single-dose IV and single-day oral dose (TID) administration.
Amifampridine phosphate was administered by IV bolus at 0.8 mg/kg (in saline) to 6 rats/sex and by oral gavage (in water) TID (approximately 6 hours apart) at dose levels of 2, 8, and 25 mg/kg/dose (equivalent to 6, 24, and 75 mg/kg/day) to 12 rats/sex/group, with oral Dose 1 given to fasted rats and Dose 2 and 3 with food ad libitum. For IV bolus dose and oral Dose 1 (dose administration No. 1), blood samples were collected from three animals/sex/timepoint at predose and 0.083 (IV only), 0.17, 0.25, 0.33, 0.5, 0.75, 1, 1.25 (IV only), 1.5, 2, 2.5, 3, and 6 hours post-dose; 0.17, 0.5, and 6 hours following the second oral dose (dose administration No. 2); and 0.17, 0.25, 0.33, 0.5, 0.75, 1, 1.5, 2, 3, 4, 6, 8, and 10 hours following the third oral dose (dose administration No. 3). The second and third oral doses were given at 6 and 12 hours, respectively, after the first dose. LC-MS/MS was used to quantify amifampridine, 3-N-acetyl and 4-N-acetyl amifampridine metabolites in rat plasma samples. […] Noncompartmental analysis was applied to the mean plasma amifampridine and 3-N-acetyl metabolite concentration data for male and female rats. […]

[2] = biological target: T1, cloned human Kv1.1 potassium channel (Homo sapiens, UniProt Q09470); assay: PatchXpress inhibition of cloned human Kv1.1 in HEK293 cells (Example 6); assay type: cell-based; conditions: hKv1.1, up to 3000 μM
T1 construct: expressed in transfected cells
T1 sequence (Q09470 whole entry): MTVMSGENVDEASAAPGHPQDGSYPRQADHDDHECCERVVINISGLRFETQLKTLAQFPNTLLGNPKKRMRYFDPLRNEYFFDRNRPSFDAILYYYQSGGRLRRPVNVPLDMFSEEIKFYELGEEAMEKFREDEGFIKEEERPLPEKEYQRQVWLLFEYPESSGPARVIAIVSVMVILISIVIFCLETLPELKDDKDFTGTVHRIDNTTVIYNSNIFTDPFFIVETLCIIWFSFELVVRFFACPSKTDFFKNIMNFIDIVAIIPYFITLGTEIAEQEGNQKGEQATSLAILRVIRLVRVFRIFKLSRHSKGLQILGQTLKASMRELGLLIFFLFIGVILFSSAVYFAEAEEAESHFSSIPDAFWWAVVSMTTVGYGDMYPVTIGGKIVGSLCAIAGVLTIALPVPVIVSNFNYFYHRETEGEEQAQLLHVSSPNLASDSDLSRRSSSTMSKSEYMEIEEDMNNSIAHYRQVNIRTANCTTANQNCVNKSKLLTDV
Text: The objective of this study was to examine the in vitro effects and determine the […] of 3,4-DAP phosphate and the metabolite N-(4-aminopyridin-3-yl) acetamide HCl on the following ion channels: cloned human Kv1.1 potassium channel (encoded by the human KCNA1 gene, expressed in HEK293 cells), cloned human Kv1.2 potassium channel (encoded by the human KCNA2 gene, expressed in HEK293 cells), cloned human Kv1.3 potassium channel (encoded by the human KCNA3 gene, expressed in CHO cells), cloned human Kv1.4 potassium channel (encoded by the human KCNA4 gene, expressed in HEK293 cells), cloned human Kv1.5 potassium channel (encoded by the human KCNA5 gene and expressed in CHO cells), responsible for IKur, ultra-rapid delayed rectifier potassium current.
Chemicals used in solution preparation were purchased from Sigma-Aldrich (St. Louis, Mo.), unless otherwise noted, and were of ACS reagent grade purity or higher. Stock solutions of each test article (100 mM, 30 mM and 1.00 mM 3,4-DAP phosphate and 100 mM N-(4-aminopyridin-3-yl)acetamide) were prepared in sterile water and stored refrigerated. […]
In preparation for a recording session, intracellular solution was loaded into the intracellular compartments of the Sealchip16. […] After establishment of a whole-cell configuration, membrane currents were recorded using dual-channel patch clamp amplifiers in the PatchXpress®. […]

Structure (SMILES): CC(=O)Nc1cnccc1N [3-N-acetyl amifampridine, N-(4-aminopyridin-3-yl)acetamide]
- abundance of major circulating metabolite relative to 3,4-DAP [1]: more abundant than 3,4-DAP
- activity on K+ channel [2]: inactive
- activity on K+ channel ([2]; listed as N-acetyl metabolite): not active
